Reference: article PMC7238241, “Lack of Correlation between In Vitro and In Vivo Studies on the Inhibitory Effects of (‒)-Sophoranone on CYP2C9 Is Attributable to Low Oral Absorption and Extensive Plasma Protein Binding of (‒)-Sophoranone” (Pharmaceutics, 2020)
Values joined by “and” are separate entries in the source; they are usually repeats but may differ in a detail not shown here. Equal values may be shown once. Read-outs that look alike come from different tables or passages of the source.

Legend:
CYP2C19 = biological target: T1, CYP2C19 (Homo sapiens, UniProt P33261); assay: Reversible CYP2C19 inhibition, cocktail assay (omeprazole 5-hydroxylase) in human liver microsomes; assay type: biochemical; conditions: human liver microsomes 0.1 mg/mL, omeprazole probe, n = 3
T1 construct: tissue Corning Life Sciences; host or cells: pooled human liver microsomes, 150 donors
Protocol: The inhibitory effects of SPN on CYP1A2, CYP2A6, CYP2B6, CYP2C8, CYP2C9, CYP2C19, CYP2D6, CYP2E1, and CYP3A4 were evaluated in pooled human liver microsomes through the use of specific CYP probe substrates (cocktail assay), as previously described with a slight modification. Concentrations of each CYP probe in Table 1 were used close to their reported Km values.
Briefly, a 90-µL incubation mixture, including pooled human liver microsomes (final concentration 0.1 mg/mL), 50 mM phosphate buffer (pH 7.4), each CYP-probe substrate cocktail set, and SPN (0–50 μM), was pre-incubated for 5 min at 37 °C. SPN was dissolved in methanol and spiked into the incubation mixture to a final concentration of 0.5% methanol. […]
The IC50 values were calculated via nonlinear least-squares regression analysis from logarithmic plots of inhibitor concentration versus percentage of activity remaining after inhibition, using SigmaPlot (ver. 14.0; Systat Software Inc, Chicago, IL, USA). The Ki values were determined from the equations for a single substrate single inhibitor model and the software available in the SigmaPlot Enzyme Kinetics module. Competitive, non-competitive, uncompetitive, or mixed inhibition models were evaluated and ranked according to the best fit based on Akaike Information Criterion (AIC) values. […]

CYP2C9 = biological target: T2, CYP2C9 (Homo sapiens, UniProt P11712); assay: Determination of Ki and inhibition type on CYP2C9 activity in human liver microsomes; assay type: biochemical; conditions: for Ki: human liver microsomes, n = 3
T2 construct: tissue Corning Life Sciences; host or cells: pooled human liver microsomes, 150 donors
Protocol: Based on the IC50 values, the Ki values of SPN on CYP2C9 activity were determined. […] Other procedures were similar to those of the reversible inhibition studies. All incubations were performed in triplicate, and the data are shown as the mean ± standard deviation.
The IC50 values were calculated via nonlinear least-squares regression analysis from logarithmic plots of inhibitor concentration versus percentage of activity remaining after inhibition, using SigmaPlot (ver. 14.0; Systat Software Inc, Chicago, IL, USA). The Ki values were determined from the equations for a single substrate single inhibitor model and the software available in the SigmaPlot Enzyme Kinetics module. Competitive, non-competitive, uncompetitive, or mixed inhibition models were evaluated and ranked according to the best fit based on Akaike Information Criterion (AIC) values. For visual inspection, the data were presented as Dixon plots.

[1] = system: CYP1A2, CYP2A6, CYP2B6, CYP2C8, CYP2C9, CYP2C19, CYP2D6, CYP2E1, and CYP3A4; assay: Time-dependent inactivation (IC50 shift) of the nine CYP isoforms in human liver microsomes; assay type: biochemical; conditions: 30 min pre-incubation with human liver microsomes in the presence of NADPH
Protocol: Pooled human liver microsomes (1 mg/mL) were incubated with SPN (0−50 µM) for 30 min at 37 °C in the absence or presence of an NADPH-generating system (i.e., the “inactivation incubation”). After inactivation incubation, aliquots (10 μL) were transferred into fresh incubation tubes (final volume 100 μL) containing an NADPH-generating system and each P450-selective substrate cocktail set. The reaction mixtures were incubated for 15 min at 37 °C in a shaking water bath. After incubation, the reactions were stopped by adding 200 µL of ice-cold acetonitrile containing 2 µM chlorpropamide, as an internal standard. The incubation mixtures were centrifuged (16,000× g, 15 min) and 5 μL of the supernatant was injected into the LC-MS/MS system. All incubations were performed in triplicate, and the data are shown as the mean ± standard deviation.

[2] = Unbound fraction in human plasma (rapid equilibrium dialysis); assay type: in vitro ADME
Protocol: The plasma or liver microsomal protein bindings were performed using a rapid equilibrium dialysis device and cellulose membranes with a molecular weight cutoff of 8000 (Thermo Scientific, Rockford, IL, USA). The rat and human plasma samples (200 μL) containing SPN at 10 and 50 μM, respectively, were dialyzed against a dialysis buffer, phosphate-buffered saline (PBS, 400 μL). The loaded dialysis plate was covered with sealing tape, placed on an orbital shaker at approximately 200 rpm, and incubated at 37 °C for 4 h. Thereafter, samples (100 μL) from both PBS and plasma chambers were collected and mixed with an equal volume of blank plasma and PBS, respectively. All samples were stored at −80 °C until LC-MS/MS analysis. The unbound fraction of SPN in human (or rat) plasma was calculated by dividing the SPN concentration in PBS by that in plasma.

CYP3A4 [3] = biological target: T3, CYP3A4 (Homo sapiens, UniProt P08684); assay: Inhibition of CYP3A4-catalyzed testosterone 6β-hydroxylation; assay type: biochemical; conditions: data not shown
T3 construct: tissue Corning Life Sciences; host or cells: pooled human liver microsomes, 150 donors
Source text: The reversible inhibition of SPN-mediated CYP3A4 activity was less consistent with the published literature. […] They only focused on the in vitro inhibitory potentials of several flavonoids against CYP3A4 activity. To the best of our knowledge, to date, bufalin has not been used as the in vitro probe substrate for the CYP3A4 activity, and the reference material of 5′-hydroxybufalin is not commercially available. Because of the presence of several binding regions within the CYP3A4 active site, multiple probe substrates are often used for in vitro CYP3A4-mediated drug–drug interaction studies, including midazolam, nifedipine, and testosterone. […] Altogether, the in vitro CYP3A4 inhibition by SPN seemed to be substrate-specific.

CYP3A4 [4] = system: CYP3A4; set-up: method as in PMID 29753067; conditions: cited from earlier work
[5] = set-up: method as in PMID 26068519; conditions: rats, oral 12.9 mg/kg SPN; cited from earlier work
[6] = Effects of SPN on the pharmacokinetics of diclofenac in rats; conditions: rats
Protocol: The carotid arteries of each rat were cannulated with a polyethylene tube (Clay Adams, Franklin Lakes, NJ, USA) for blood sampling. Each rat was individually housed in a rat metabolic cage and allowed to recover from anesthesia for 4–5 h prior to the start of the experiment. […] SPN was suspended in dimethylsulfoxide:PEG400:distilled water (5:60:35, v/v/v) and administered by oral gavage at a dose of 75 mg/kg in a volume of 5 mL/kg. […] The blood samples were immediately centrifuged at 13,000× g for 5 min at 4 °C. The plasma samples were divided into two Eppendorf tubes by 50 μL and stored at −80 °C until LC-MS/MS analysis.
Briefly, 50 μL aliquots of plasma were extracted with 300 μL aliquots of acetonitrile containing chlorpropamide (internal standard), followed by LC-MS/MS (Shimadzu Corporation). Chromatographic separation was performed on a Phenomenex Luna C18 column (100 × 2.00 mm; 3.0 μm). The isocratic mobile phase consisted of 0.1% formic acid in distilled water (A) and 0.1% formic acid in acetonitrile (B) (45:55, v/v), with a flow rate of 0.3 mL/min. […] The data acquisition was computed using LabSolutions LCMS Ver.5.6 (Shimadzu Corporation).
Pharmacokinetic parameters were calculated by a non-compartmental analysis using WinNonlin Professional software (version 5.2, Pharsight Corp., Mountain View, CA, USA) that used the total area under the plasma concentration–time curve from time zero to infinity (AUC∞) or the last measured time (AUCt). The logarithmic trapezoidal rule was used during the declining plasma level phase and the linear trapezoidal rule was used for the rising plasma-level phase. The peak plasma concentration (Cmax) and time to reach Cmax (Tmax) were read directly from the experimental data. Statistically significant differences were recognized at p < 0.05.

T2 sequence (P11712 whole entry): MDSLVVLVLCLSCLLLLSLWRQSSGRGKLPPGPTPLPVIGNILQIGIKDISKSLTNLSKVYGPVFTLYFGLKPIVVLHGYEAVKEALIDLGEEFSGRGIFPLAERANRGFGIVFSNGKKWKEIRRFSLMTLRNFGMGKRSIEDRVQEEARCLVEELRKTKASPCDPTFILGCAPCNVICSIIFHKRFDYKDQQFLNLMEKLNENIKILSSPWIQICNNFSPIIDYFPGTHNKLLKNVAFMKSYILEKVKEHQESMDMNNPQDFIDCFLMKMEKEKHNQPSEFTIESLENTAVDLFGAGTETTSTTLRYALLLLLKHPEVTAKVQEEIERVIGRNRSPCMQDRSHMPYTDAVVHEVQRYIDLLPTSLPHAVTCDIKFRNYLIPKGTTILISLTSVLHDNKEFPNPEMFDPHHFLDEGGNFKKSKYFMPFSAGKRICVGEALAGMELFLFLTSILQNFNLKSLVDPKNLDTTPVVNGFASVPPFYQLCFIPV
T3 sequence (P08684 whole entry): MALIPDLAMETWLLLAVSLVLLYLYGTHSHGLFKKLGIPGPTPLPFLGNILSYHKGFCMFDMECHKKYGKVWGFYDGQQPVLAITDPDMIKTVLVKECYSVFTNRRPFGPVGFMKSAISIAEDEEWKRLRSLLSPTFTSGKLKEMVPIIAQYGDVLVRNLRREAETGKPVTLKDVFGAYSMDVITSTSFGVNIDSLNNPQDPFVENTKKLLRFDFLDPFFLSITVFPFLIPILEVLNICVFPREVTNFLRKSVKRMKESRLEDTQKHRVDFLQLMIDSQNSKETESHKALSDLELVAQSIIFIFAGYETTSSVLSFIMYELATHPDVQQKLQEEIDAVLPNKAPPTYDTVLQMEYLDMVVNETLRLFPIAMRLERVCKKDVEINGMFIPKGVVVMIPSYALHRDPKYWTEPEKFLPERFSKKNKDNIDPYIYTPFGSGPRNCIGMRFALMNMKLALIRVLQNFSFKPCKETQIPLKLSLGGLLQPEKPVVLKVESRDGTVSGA
T1 sequence (P33261 whole entry): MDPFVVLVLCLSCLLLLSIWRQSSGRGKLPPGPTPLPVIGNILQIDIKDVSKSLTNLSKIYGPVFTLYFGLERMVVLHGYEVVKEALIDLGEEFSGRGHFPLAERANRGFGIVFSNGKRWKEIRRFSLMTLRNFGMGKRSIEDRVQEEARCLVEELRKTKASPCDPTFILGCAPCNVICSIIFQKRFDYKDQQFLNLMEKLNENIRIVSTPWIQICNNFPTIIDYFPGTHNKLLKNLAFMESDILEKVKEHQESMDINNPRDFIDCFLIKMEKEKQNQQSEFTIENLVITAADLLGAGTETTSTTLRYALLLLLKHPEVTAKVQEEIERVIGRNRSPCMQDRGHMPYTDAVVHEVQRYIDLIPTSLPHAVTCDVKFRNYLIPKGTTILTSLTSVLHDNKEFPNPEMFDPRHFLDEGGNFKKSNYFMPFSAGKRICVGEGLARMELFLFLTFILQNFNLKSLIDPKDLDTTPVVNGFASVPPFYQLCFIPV

CC(C)=CCc1cc([C@@H]2CC(=O)c3ccc(O)c(CC=C(C)C)c3O2)cc(CC=C(C)C)c1O [SPN, (‒)-Sophoranone]
IC50 (CYP2C19): 16.8 ± 3.21 µM | Ki (CYP2C9; Ki values, CYP2C9 probe diclofenac, diclofenac 2, 5, and 10 µM): 0.587 ± 0.047 µM | Mode of inhibition, CYP2C9 probe diclofenac (CYP2C9; best fit based on AIC values): Competitive | Mode of inhibition, CYP2C9 probe tolbutamide (CYP2C9; best fit based on AIC values): Competitive | Ki (CYP2C9; tolbutamide 50, 100, and 150 µM, read-out: Ki values, CYP2C9 probe tolbutamide): 0.503 ± 0.0383 µM | shift in IC50 after pre-incubation (time-dependent inactivation of the nine CYPs) [1]: no obvious shift in IC50 | fraction unbound at 4 h, 10 µM ([2]; human, human plasma, 10 μM, 37 °C, 4 h, n = 3, read-out: free fraction in human plasma): 0.000457 ± 6.12e-05 | fraction unbound at 4 h, 50 µM ([2]; human, human plasma, 50 μM, 37 °C, 4 h, n = 3, read-out: free fraction in human plasma): 0.000927 ± 0.0004 | fraction unbound at 4 h ([2]; human, human plasma, 10 and 50 μM, read-out: plasma protein binding, human): < 0.001 | fraction unbound at 4 h ([2]; mean over human and rat plasma in the range of 10 and 50 μM, read-out: mean unbound fraction in plasma): 0.000574 | IC50 (CYP3A4 [3]): 31.5 ± 4.79 µM | IC50 (CYP3A4 [4]; range over other CYP3A4 substrates): 5.62 to 38.4 µM | Ki (CYP3A4 [4]; read-out: Ki, CYP3A4-catalyzed bufalin 5′-hydroxylation): 2.17 ± 0.29 µM | maximum plasma concentration (Cmax) [5]: approximately 13.1 ng/mL | Cmax ([6]; male, Sprague-Dawley, rat, plasma, po, Cmax of SPN, oral SPN 75 mg/kg co-administered with diclofenac 2 mg/kg, n = 6): 33.7 ng/mL and 73.2 nM | effect of co-administration on the pharmacokinetics of diclofenac and 4′-hydroxydiclofenac ([6]; oral SPN 75 mg/kg 15 min before oral diclofenac 2 mg/kg): did not alter the pharmacokinetics of diclofenac and 4′-hydroxydiclofenac | Imax,u (unbound maximum concentration in plasma) ([6]; oral SPN 75 mg/kg, Cmax corrected for plasma protein binding): 0.0420 ± 0.0184 nM
